PubChem BioAssay (NCI)
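Five compound concentrations were applied to cells in 96-well plates for 48 hours; endpoints were derived by simple linear interpolation of the resulting dose-response curve. At the GI50, growth is halved. TGI: total growth inhibition.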

Legend:
Assay in all cases: NCI-60 cell line screen, 48 h
NCI-H522 lung = system: NCI-H522 lung
IGROV1 ovarian = system: IGROV1 ovarian
HOP-62 NSCLC = system: HOP-62 NSCLC
OVCAR-3 ovarian = system: OVCAR-3 ovarian
HL-60(TB) leukemia = system: HL-60(TB) leukemia
UO-31 renal = system: UO-31 renal
TK-10 renal = system: TK-10 renal
NCI-H226 lung = system: NCI-H226 lung
RXF 393 renal = system: RXF 393 renal

Compound | TGI (NCI-H522 lung) | TGI (IGROV1 ovarian) | TGI (HOP-62 NSCLC) | TGI (OVCAR-3 ovarian) | TGI (HL-60(TB) leukemia) | TGI (UO-31 renal) | TGI (TK-10 renal) | TGI (NCI-H226 lung) | TGI (RXF 393 renal) | GI50 (NCI-H522 lung) | GI50 (IGROV1 ovarian) | GI50 (HOP-62 NSCLC) | GI50 (HL-60(TB) leukemia) | GI50 (UO-31 renal) | GI50 (TK-10 renal) | GI50 (NCI-H226 lung) | GI50 (RXF 393 renal)
COc1ccccc1NC(=O)CC(=O)N/N=C/c1ccc(N(CCC#N)S(=O)(=O)c2ccccc2)cc1 | > 100 µM | > 100 µM | > 100 µM | > 100 µM | > 100 µM | > 100 µM | > 100 µM | > 100 µM |  |  |  |  |  |  |  |  | 
N#CC1CC2(CCN1C(=O)c1ccccc1)OCCO2 (configuration not stated) | 78.2 µM | > 100 µM | > 100 µM | > 100 µM | > 100 µM | > 100 µM | > 100 µM | > 100 µM | > 100 µM |  |  |  |  |  |  |  | 
COc1cccc(NC(=O)/C(Cc2nc3ccccc3nc2C)=N/NC(=O)C[n+]2ccccc2)c1 |  | > 100 µM | > 100 µM | > 100 µM | > 100 µM | > 100 µM | > 100 µM | > 100 µM |  |  |  |  |  |  |  |  | 
O=C1C(=Cc2c(O)cc(O)cc2O)C(=O)c2ccccc21 | > 60.3 µM | > 59.8 µM | > 100 µM | > 55 µM | 43.5 µM | > 100 µM | > 67.5 µM | > 63 µM | 27.9 µM |  |  |  |  |  |  |  | 
COc1cc2c(cc1OC)/C(=C\c1ccccc1N)C(=O)OC2 | 3.47 µM | 36.7 µM | 45.4 µM | 35.7 µM | 17.6 µM | 32.7 µM | 35.2 µM |  | 12.9 µM |  |  |  |  |  |  |  | 
CC(=O)OCC1OC(n2c(-c3ccc(C)cc3)cc(-c3ccccc3)c(C#N)c2=O)C(OC(C)=O)C(OC(C)=O)C1OC(C)=O (configuration not stated) | > 100 µM | > 100 µM | > 100 µM | > 100 µM | > 100 µM | > 100 µM | > 100 µM | > 100 µM |  |  |  |  |  |  |  |  | 
COC(C)(C)C/C=C/C(C)=C/C=C/C(C)=C\C=C\C(C)=C\C=C\C=C(C)\C=C\C=C(C)\C=C\C=C(C)\C=C\CC(C)(C)OC | > 150 µg/mL | > 150 µg/mL | > 150 µg/mL |  | > 150 µg/mL | > 150 µg/mL | > 150 µg/mL | > 150 µg/mL | > 150 µg/mL | > 150 µg/mL | > 150 µg/mL | > 150 µg/mL | > 150 µg/mL | > 150 µg/mL | > 150 µg/mL | > 150 µg/mL | > 150 µg/mL
CCOC(=O)c1[nH]c(COC(C)=O)c2c1CCCCCCCCCC2 | > 100 µM | > 100 µM | > 100 µM | > 100 µM | > 100 µM | > 100 µM | > 100 µM | > 100 µM | > 100 µM |  |  |  |  |  |  |  | 
O=C(NC12CC3CC(CC(C3)C1)C2)C(=O)c1c[nH]c2ccccc12 | 31.7 µM | 29.3 µM | 36.7 µM | 31 µM | 52.8 µM | 36.6 µM | 44.5 µM |  |  |  |  |  |  |  |  |  | 
COC(=O)Nc1nc2ccc(Br)cc2[nH]1 | 32.8 µM | > 100 µM | > 100 µM | 82.5 µM | 90 µM | > 100 µM | > 100 µM | > 100 µM | 67.2 µM |  |  |  |  |  |  |  | 
COc1ccc(OCC(=O)O)c(C(=O)CCC(=O)O)c1 | > 100 µM | > 100 µM | > 10 µM | > 10 µM | > 100 µM | > 100 µM | > 100 µM | > 100 µM | > 100 µM |  |  |  |  |  |  |  | 
Cc1cc(Cl)ccc1NC(=O)CC1SC(=Nc2ccccc2Cl)NC1=O (configuration not stated) | 80.4 µM | > 100 µM | > 100 µM | > 100 µM | 40.4 µM | > 100 µM | > 100 µM | > 100 µM | 84.3 µM |  |  |  |  |  |  |  | 
NC(N)=NS(=O)(=O)c1ccc(Nc2c3ccccc3nc3c(C(=O)Nc4ccc(S(N)(=O)=O)cc4)cccc23)cc1 | 68.7 µM | > 100 µM | > 100 µM | > 100 µM | > 100 µM | > 100 µM | > 100 µM |  | > 100 µM |  |  |  |  |  |  |  | 
COc1ccc(C2ON(c3cccc(C)n3)CC=C2C)cc1 (configuration not stated) | 54.8 µM | > 100 µM | > 100 µM | > 100 µM | 43.7 µM | > 100 µM |  | > 100 µM | 96.5 µM |  |  |  |  |  |  |  | 
Cn1cc(C(=O)C[n+]2ccccc2)c2ccccc21 | > 100 µM | > 100 µM | > 100 µM | > 100 µM | > 100 µM | > 100 µM | > 100 µM | 59.1 µM |  |  |  |  |  |  |  |  | 
Cc1cc2c(C)nn(Cc3ccc(Cl)cc3)c2c(C#N)c1C |  | > 100 µM | > 100 µM | > 100 µM | > 100 µM | > 100 µM | > 100 µM | > 100 µM | > 100 µM |  |  |  |  |  |  |  | 
O=C(c1ccccc1)c1cn(/N=C\c2ccccc2)c(=O)nc1-c1ccccc1 | > 100 µM |  | > 100 µM | > 100 µM |  | > 100 µM | > 100 µM | > 100 µM | > 100 µM |  |  |  |  |  |  |  | 
O=C(O)CCc1nn2c(nc1=O)sc1ccc3ccccc3c12 |  | > 100 µM | > 100 µM | > 100 µM | > 100 µM | > 100 µM | > 100 µM | > 100 µM | > 100 µM |  |  |  |  |  |  |  | 
CCCSS[C@H]1NC(=O)[C@H]1NC(=O)COc1ccccc1 |  | 43.2 µM | > 100 µM | 31.5 µM | 5.72 µM | > 100 µM | 63.9 µM |  | 29.7 µM |  |  |  |  |  |  |  | 
